This assay deals with T1, human CMR-1 (Homo sapiens, UniProt Q7Z2W7).
T1 construct: expressed in transfected cells
Briefly: Measurement of the menthol-induced Ca2+ influx in HEK293 cells expressing CMR-1 receptor (Assay 1). The class given is cell-based. The following applies: HEK293 cells stably expressing human CMR-1; preincubation with compound, menthol stimulation; fluo4-AM fluorescence. An excerpt: Measurement of the Menthol-Induced Ca^2+ Influx in […] Cell Expressing CMR-1 Receptor (Assay 1).
A cell-based calcium influx assay using HEK293 cells stably expressing human CMR-1 is used to identify CMR-1 receptor-antagonists. Menthol, a CMR-1 specific agonist, is used for stimulation of these cells, inducing an increase in intracellular calcium. This menthol-induced Ca^2+ increase is traced by fluorescence measurement. Therefore the cells are loaded with fluo4-AM prior to stimulation. For testing inhibitors the cells are preincubated with various concentrations of the compound before menthol stimulation. The potency of potential CMR-1 inhibitors is quantified by measuring decrease of fluorescence.

Counter-ions that a name gives are not always drawn.

T1 sequence (Q7Z2W7 whole entry): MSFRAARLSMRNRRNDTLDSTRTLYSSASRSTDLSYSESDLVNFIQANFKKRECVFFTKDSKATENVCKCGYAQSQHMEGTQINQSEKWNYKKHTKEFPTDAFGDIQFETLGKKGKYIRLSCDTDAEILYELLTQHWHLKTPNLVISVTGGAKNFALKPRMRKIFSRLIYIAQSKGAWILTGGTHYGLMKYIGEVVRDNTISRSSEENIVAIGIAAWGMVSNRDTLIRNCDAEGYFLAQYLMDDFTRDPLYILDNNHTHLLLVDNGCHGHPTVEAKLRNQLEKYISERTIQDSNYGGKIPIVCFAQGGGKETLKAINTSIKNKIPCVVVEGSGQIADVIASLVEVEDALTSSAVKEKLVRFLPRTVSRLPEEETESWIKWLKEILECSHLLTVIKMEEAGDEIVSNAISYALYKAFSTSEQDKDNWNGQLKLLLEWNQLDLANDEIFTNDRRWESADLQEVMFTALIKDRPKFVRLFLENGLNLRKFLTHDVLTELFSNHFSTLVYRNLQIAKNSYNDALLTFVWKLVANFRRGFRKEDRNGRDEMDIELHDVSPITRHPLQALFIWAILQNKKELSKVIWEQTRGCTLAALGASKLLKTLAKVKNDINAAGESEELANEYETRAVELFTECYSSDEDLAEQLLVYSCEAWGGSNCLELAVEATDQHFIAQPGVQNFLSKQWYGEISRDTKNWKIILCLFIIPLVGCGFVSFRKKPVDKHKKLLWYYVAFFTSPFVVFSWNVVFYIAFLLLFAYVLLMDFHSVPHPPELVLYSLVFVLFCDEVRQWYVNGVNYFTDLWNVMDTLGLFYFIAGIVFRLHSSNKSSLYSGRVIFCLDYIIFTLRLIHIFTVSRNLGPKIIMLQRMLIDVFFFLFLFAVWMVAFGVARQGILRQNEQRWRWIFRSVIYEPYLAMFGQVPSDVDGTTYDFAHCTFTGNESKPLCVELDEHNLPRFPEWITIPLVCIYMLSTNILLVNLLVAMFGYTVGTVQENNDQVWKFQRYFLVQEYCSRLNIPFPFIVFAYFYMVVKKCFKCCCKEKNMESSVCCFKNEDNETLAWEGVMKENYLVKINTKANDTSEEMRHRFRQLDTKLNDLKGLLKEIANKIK

As usually defined, the IC50 is the concentration needed to halve the response being measured. With `COc1cc(CN(CCN)C(=O)c2cccs2)ccc1OCc1ccccc1` [Example 3-1, N-(2-aminoethyl)-N-[4-(benzyloxy)-3-methoxybenzyl]thiophene-2-carboxamide hydrochloride], the IC50 came to 1 nM.

With `COc1cc(CN(CCN)C(=O)c2ccccc2)ccc1OCc1ccccc1` [Example 4-1, N-(2-aminoethyl)-N-[4-(benzyloxy)-3-methoxybenzyl]benzamide trifluoroacetate], the IC50 was found to be 150 nM.

With `COc1cc(CN(CCCNC(=O)OC(C)(C)C)C(=O)c2cccs2)ccc1OCc1ccc(F)cc1` [Example 10], the IC50 was 70 nM.

For `COc1cc(CN(CCN)C(=O)c2cccs2)ccc1OCc1ccccc1F` [Example 17, N-(2-aminoethyl)-N-{4-[(2-fluorobenzyl)oxy]-3-methoxybenzyl}thiophene-2-carboxamide trifluoroacetate], the IC50 was determined as 1 nM.

In the case of `COc1cc(CN(CCN)C(=O)CC(C)(C)C)ccc1OCc1ccc(F)cc1F` [Example 20], the IC50 amounted to 8 nM.

In the case of `COc1cc(CN(Cc2ccccc2)C(=O)c2ccccc2)ccc1OCc1ccc(F)cc1` [Example 38, N-benzyl-N-{4-[(4-fluorobenzyl)oxy]-3-methoxybenzyl}benzamide], the IC50 came out at 40 nM.

These data come from patent publication US20080214654A1, “Substituted Benzyloxy-Phenylmethylamide Derivatives” (Bayer HealthCare AG, priority 2004, published 2008).
